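Five compound concentrations were applied to cells in 96-well plates for 48 hours; endpoints were derived by simple linear interpolation of the resulting dose-response curve. Definition used: TGI = concentration required for complete inhibition of growth.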

From PubChem BioAssay (NCI) come the findings set out here.

Some test systems named below: CAKI-1 renal; UACC-257 melanoma; SK-MEL-5 melanoma; MDA-MB-231 breast; SK-MEL-2 melanoma; RPMI-8226 leukemia; HT29 colon; SN12C renal; MALME-3M melanoma; A549 NSCLC; U251 CNS; CCRF-CEM leukemia; K-562 leukemia; OVCAR-8 ovarian; COLO 205 colon.
Common to all, as to experiment: inhibition of tumour cell growth, NCI panel, 48 h

In the case of `C[C@]12C[C@@H](OC(=O)[C@]1(C)O)[C@@H]([C@]1(O)CC[C@H]3[C@@H]4C[C@H]5O[C@]56C[C@H]5O[C@H]5C(=O)[C@]6(C)[C@H]4CC[C@@]31C)C2`, the TGI with CAKI-1 renal, in the assay with UACC-257 melanoma, in the assay on SK-MEL-5 melanoma, in the assay on MDA-MB-231 breast, in the assay with SK-MEL-2 melanoma and in the assay with RPMI-8226 leukemia was more than 50 µM in each case. In addition, the TGI in the assay on HT29 colon was more than 50 µM; with SN12C renal, more than 50 µM; in the assay on MALME-3M melanoma, more than 5 µM; with A549 NSCLC, more than 50 µM; with U251 CNS it was more than 50 µM; in the assay on CCRF-CEM leukemia, more than 50 µM. In addition, the TGI with K-562 leukemia, in the assay on OVCAR-8 ovarian and with COLO 205 colon was more than 50 µM throughout.

Turning to `COc1cc2c(c(O)c1OC)C(=O)[C@@H]1CCC(=O)N1C2`, the TGI in the assay with CAKI-1 renal, with UACC-257 melanoma, in the assay on SK-MEL-5 melanoma, in the assay with MDA-MB-231 breast, in the assay with SK-MEL-2 melanoma and in the assay on RPMI-8226 leukemia was more than 100 µM each time. The TGI in the assay with HT29 colon, with SN12C renal, in the assay on MALME-3M melanoma, with A549 NSCLC, in the assay with U251 CNS and with CCRF-CEM leukemia was more than 100 µM each time. The TGI with K-562 leukemia, with OVCAR-8 ovarian and in the assay on COLO 205 colon was more than 100 µM in each case.

Consider `O=C(/C=C/c1ccccc1)Oc1ccc(C(=O)/C=C/c2ccc(Cl)cc2)cc1`, for which the TGI with CAKI-1 renal, in the assay on UACC-257 melanoma, in the assay on SK-MEL-5 melanoma, in the assay on MDA-MB-231 breast, in the assay on SK-MEL-2 melanoma and in the assay on RPMI-8226 leukemia was more than 100 µM throughout. In addition, the TGI in the assay with HT29 colon, in the assay on SN12C renal, in the assay with MALME-3M melanoma, in the assay with A549 NSCLC, with U251 CNS and in the assay on CCRF-CEM leukemia was more than 100 µM each time. Further, the TGI in the assay with K-562 leukemia, in the assay on OVCAR-8 ovarian and in the assay on COLO 205 colon was more than 100 µM throughout.

With `CCC1OC2C(CC=C(C)C)=C3OC(C)(O)C(C)(CC)C(OC(C)=O)C3=C3OC(=O)C=C1C32` (stereo not given), the TGI is 62.1 µM with CAKI-1 renal; 53.7 µM in the assay on UACC-257 melanoma; 42.2 µM in the assay on SK-MEL-5 melanoma; 36.7 µM in the assay on MDA-MB-231 breast; 41.8 µM with SK-MEL-2 melanoma; more than 100 µM in the assay on RPMI-8226 leukemia. Also, the TGI in the assay with HT29 colon was 53.1 µM; in the assay with SN12C renal, 41.2 µM; in the assay with MALME-3M melanoma, 49.3 µM; in the assay on A549 NSCLC it was more than 100 µM; in the assay on U251 CNS, more than 100 µM; with CCRF-CEM leukemia, more than 100 µM. For the same compound, the TGI is more than 100 µM with K-562 leukemia, more than 100 µM with OVCAR-8 ovarian and 70.9 µM in the assay on COLO 205 colon.

For `COC(=O)c1ccc2c(c1)S/C(=C/c1ccc3ccc4cccc5ccc1c3c45)S2`, the TGI in the assay on CAKI-1 renal, in the assay with UACC-257 melanoma, with SK-MEL-5 melanoma, in the assay with MDA-MB-231 breast, in the assay on SK-MEL-2 melanoma and in the assay with RPMI-8226 leukemia was more than 100 µM throughout. The TGI with HT29 colon, with SN12C renal, in the assay with MALME-3M melanoma, in the assay on A549 NSCLC, with U251 CNS and with CCRF-CEM leukemia was more than 100 µM throughout. The TGI with K-562 leukemia, in the assay on OVCAR-8 ovarian and with COLO 205 colon was more than 100 µM each time.

As to `CC1CN=C(N(Cc2ccccc2)C(=O)Nc2ccc(Cl)c(Cl)c2)S1` (stereo not given), the TGI is more than 100 µM with CAKI-1 renal; more than 100 µM in the assay on UACC-257 melanoma; 51.9 µM with SK-MEL-5 melanoma; 86.6 µM in the assay with MDA-MB-231 breast; 68.3 µM in the assay with SK-MEL-2 melanoma; more than 100 µM with RPMI-8226 leukemia. Moreover, the TGI in the assay with HT29 colon is more than 100 µM; in the assay with SN12C renal it was 69.3 µM; in the assay with MALME-3M melanoma, more than 100 µM; with A549 NSCLC, more than 100 µM; in the assay with U251 CNS, more than 100 µM; in the assay with CCRF-CEM leukemia, more than 10 µM. Also, the TGI in the assay with K-562 leukemia, in the assay on OVCAR-8 ovarian and with COLO 205 colon was more than 100 µM in each case.

As to `CCOC(=O)C(=CNc1ccc(NC2=NCC(C)S2)cc1)C(=O)OCC` (stereo not given), the TGI in the assay on CAKI-1 renal was more than 100 µM; with UACC-257 melanoma, more than 100 µM; with SK-MEL-5 melanoma it was 34.5 µM; with MDA-MB-231 breast, more than 100 µM; in the assay with SK-MEL-2 melanoma, 50.7 µM; in the assay with RPMI-8226 leukemia, 32.3 µM. Moreover, the TGI in the assay with HT29 colon is more than 84.2 µM; with SN12C renal, more than 100 µM; in the assay on MALME-3M melanoma, 96.2 µM; in the assay with A549 NSCLC, more than 100 µM; in the assay on U251 CNS, more than 100 µM; in the assay on CCRF-CEM leukemia it was 1.84 µM. The TGI is 4.69 µM in the assay on K-562 leukemia, more than 100 µM in the assay on OVCAR-8 ovarian and more than 100 µM with COLO 205 colon.

For `CCOC(=O)N1N=C(/C(C)=N/OC)C(C)S1=O` (stereo not given), the TGI in the assay on CAKI-1 renal, with UACC-257 melanoma, in the assay on SK-MEL-5 melanoma, with MDA-MB-231 breast, in the assay on SK-MEL-2 melanoma and with RPMI-8226 leukemia was more than 100 µM in each case. The TGI in the assay with HT29 colon, with SN12C renal, in the assay on MALME-3M melanoma, in the assay on A549 NSCLC, with U251 CNS and with CCRF-CEM leukemia was more than 100 µM in each case. The TGI with K-562 leukemia, with OVCAR-8 ovarian and with COLO 205 colon was more than 100 µM in each case.

For the compound `CC(=O)OCC(=O)O[C@@H]1[C@H]2[C@@H](OC(=O)c3ccccc3)[C@@H](C)C[C@]2(O)[C@H](OC(C)=O)[C@@]2(C)C(OC(C)=O)[C@]1(OC(C)=O)C[C@H]1C(=O)C(C)(C)C[C@@H]12` (stereo not given in full), the TGI in the assay on CAKI-1 renal, in the assay on UACC-257 melanoma, in the assay with SK-MEL-5 melanoma, in the assay with MDA-MB-231 breast, in the assay on SK-MEL-2 melanoma and with RPMI-8226 leukemia was more than 50 µM in each case. Besides, the TGI with HT29 colon, in the assay on SN12C renal, in the assay with MALME-3M melanoma, in the assay on A549 NSCLC, in the assay with U251 CNS and in the assay on CCRF-CEM leukemia was more than 50 µM throughout. In addition, the TGI in the assay with K-562 leukemia, with OVCAR-8 ovarian and with COLO 205 colon was more than 50 µM in each case.

As for `CCc1c(C)c(C#N)c(=S)n(C2OC(COC(C)=O)C(OC(C)=O)C(OC(C)=O)C2OC(C)=O)c1-c1ccccc1` (stereo not given), the TGI in the assay with CAKI-1 renal is more than 100 µM; in the assay with UACC-257 melanoma, more than 31.6 µM; in the assay with SK-MEL-5 melanoma, more than 31.6 µM; in the assay with MDA-MB-231 breast it was more than 31.6 µM; in the assay on SK-MEL-2 melanoma, more than 31.6 µM; in the assay with RPMI-8226 leukemia, more than 100 µM. Also, the TGI in the assay on HT29 colon was more than 31.6 µM; in the assay on SN12C renal, more than 31.6 µM; in the assay on MALME-3M melanoma, more than 31.6 µM; in the assay with A549 NSCLC, more than 31.6 µM; in the assay on U251 CNS it was 31 µM; with CCRF-CEM leukemia it was more than 100 µM. The TGI with K-562 leukemia was 47.2 µM; in the assay on OVCAR-8 ovarian, more than 31.6 µM; in the assay with COLO 205 colon, more than 31.6 µM.

As for `COc1ccc2c(c1)c1c(n2CCN(C)C)-c2ccccc2CC1`, the TGI worked out at 27.6 µM with CAKI-1 renal; 30.3 µM in the assay on UACC-257 melanoma; 32.7 µM with SK-MEL-5 melanoma; 27.2 µM in the assay with MDA-MB-231 breast; 30.3 µM in the assay on SK-MEL-2 melanoma; 45 µM in the assay on RPMI-8226 leukemia. The TGI with HT29 colon stood at 20.3 µM; with SN12C renal, 28.1 µM; in the assay on MALME-3M melanoma, 35.5 µM; in the assay with A549 NSCLC, 29.5 µM; with U251 CNS it was 27.2 µM; in the assay with CCRF-CEM leukemia, 38.6 µM. Also, the values for the TGI with K-562 leukemia, in the assay on OVCAR-8 ovarian and in the assay on COLO 205 colon were 29.8 µM, 31.1 µM and 27.2 µM, respectively.

`CCOC(=O)C1(C(=O)OCC)[C@@H](c2ccccc2)C2=NO[C@@H]3CCC[C@H]1[C@H]23`: the TGI was more than 100 µM in the assay with CAKI-1 renal; 79.8 µM in the assay with UACC-257 melanoma; more than 100 µM with SK-MEL-5 melanoma; more than 100 µM in the assay with MDA-MB-231 breast; more than 100 µM in the assay on SK-MEL-2 melanoma; more than 100 µM in the assay on RPMI-8226 leukemia. In addition, the TGI was more than 100 µM in the assay on HT29 colon; more than 100 µM in the assay on SN12C renal; more than 100 µM in the assay on MALME-3M melanoma; more than 100 µM in the assay with A549 NSCLC; more than 100 µM in the assay on U251 CNS; 78.7 µM in the assay on CCRF-CEM leukemia. Also, the TGI in the assay with K-562 leukemia, with OVCAR-8 ovarian and in the assay with COLO 205 colon was more than 100 µM each time.

Take `O=[N+]([O-])c1ccc(C(=S)Nc2ccccc2)o1`: the TGI with CAKI-1 renal is 13.9 µM; with UACC-257 melanoma, 8.82 µM; in the assay on SK-MEL-5 melanoma, 23.2 µM; with MDA-MB-231 breast it was 8.06 µM; with SK-MEL-2 melanoma it was 7.95 µM; with RPMI-8226 leukemia, 4.9 µM. Moreover, the TGI was 5.86 µM in the assay on HT29 colon; 6.82 µM in the assay on SN12C renal; 9.3 µM in the assay with MALME-3M melanoma; 22.4 µM in the assay with A549 NSCLC; 3.05 µM in the assay on U251 CNS; 11.4 µM in the assay on CCRF-CEM leukemia. For the same compound, the TGI in the assay with K-562 leukemia amounted to 6.28 µM; in the assay with OVCAR-8 ovarian, 10.6 µM; with COLO 205 colon, 2.79 µM.

Regarding `c1cc2nnc1SCCCSc1ccc(nn1)SCCCS2`, the TGI in the assay on CAKI-1 renal is more than 100 µM; in the assay with UACC-257 melanoma, more than 71.6 µM; in the assay with SK-MEL-5 melanoma, more than 100 µM; in the assay on MDA-MB-231 breast, more than 100 µM; in the assay on SK-MEL-2 melanoma, more than 86.8 µM; in the assay with RPMI-8226 leukemia, more than 100 µM. Moreover, the TGI is more than 100 µM with HT29 colon; more than 95.6 µM in the assay on SN12C renal; more than 100 µM with MALME-3M melanoma; more than 100 µM in the assay on A549 NSCLC; more than 86.9 µM in the assay on U251 CNS; more than 100 µM in the assay with CCRF-CEM leukemia. In addition, the TGI was more than 100 µM in the assay on K-562 leukemia, more than 100 µM in the assay with OVCAR-8 ovarian and more than 81.3 µM with COLO 205 colon.
